US20240246920A1, “TRIAZOLE DERIVATIVES WITH ANTIFUNGAL ACTIVITY” (King's College London, priority 2020, published 2024)
In brackets after ≈: the same amount, converted by molar mass. Where two headings read alike, the source gives them in different places.

Experiments:
C. albicans NCPF3281 = experiment: Candida panel MIC, serial dilution in 96-well plates; format: cell-based, Candida albicans; details: NCPF3281, read-out: MIC C. albicans NCPF3281
Method in brief: (§1)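 Overnight starter cultures were diluted to OD600 0.01 and added to serially diluted compound (128 to 0.25 μg/mL) in MOPS-buffered RPMI with 2% glucose, pH 7.0, giving 0.5-5×10^5 cells/mL. After 24 h at 37 °C, OD530 was measured and the ≥50% inhibition endpoint taken as MIC.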

C. glabrata NCPF8018 = experiment: as above; format: cell-based, Candida glabrata; details: Nakaseomyces glabratus
Method in brief: (§2)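 MIC taken as lowest concentration inhibiting growth ≥50% relative to drug-free control, from OD530 after 24 hours at 37° C. Fungi at 0.5-5×10^5/mL were exposed to serially diluted compound in RPMI 1640/MOPS/2% glucose medium adjusted to pH 7.0.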

C. krusei NCPF3876 = experiment: microbe, parasite or virus in culture; format: cell-based, Candida krusei; details: Pichia kudriavzevii
Method in brief: as §2

C. parapsilosis NCPF3209 = experiment: microbe, parasite or virus in culture; format: cell-based, Candida parapsilosis; details: Lodderomyces parapsilosis
Method in brief: as §2

Candida auris TDG2211 = experiment: microbe, parasite or virus in culture; format: cell-based; details: Candidozyma auris
Method in brief: (§3)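 MIC = lowest concentration inhibiting growth ≥50% relative to drug-free control, read by OD530 nm after 24 h at 37° C. Medium: RPMI 1640/MOPS/2% glucose, pH 7.0. Inoculum 0.5-5×10^5/mL.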

Candida auris TDG2506 = experiment: microbe, parasite or virus in culture; format: cell-based; details: Candidozyma auris
Method in brief: as §3

C. auris TDG1912 = experiment: Candida panel MIC, serial dilution in 96-well plates; format: cell-based; details: Candidozyma auris, TDG1912; Table 4; 24 hours, ≥50% inhibition; read-out: MIC C. auris TDG1912
Method in brief: as §1

C. tropicalis NCPF8760 = experiment: as above; format: cell-based
Method in brief: as §1

Candida auris TDG1102 = experiment: as above; format: cell-based; details: Candidozyma auris, TDG1102; Table 4, extended panel; 24 hours, ≥50% inhibition; read-out: MIC Candida auris TDG1102
Method in brief: as §1

Candida auris TDG2512 = experiment: as above; format: cell-based; details: Candidozyma auris, TDG2512; Table 4, extended panel; 24 hours, ≥50% inhibition; read-out: MIC Candida auris TDG2512
Method in brief: as §1

C. auris 8971 = experiment: as above; format: cell-based, Candida auris
Method in brief: as §3

C. auris 8977 = experiment: as above; format: cell-based, Candida auris
Method in brief: as §3

C. auris 8984 = experiment: as above; format: cell-based, Candida auris
Method in brief: as §3

C. albicans 3363 = experiment: Candida albicans panel MIC; format: cell-based; details: Table 6, Candida albicans panel
Method: (§4) The minimum inhibitory concentration of test compounds were determined in a panel of Candida species (see Table 4 below), using the a serial dilution method in 96-well plates using the following protocol.
(§5) Starter cultures of fungal strains to be tested were grown in 3 mL of RPMI 2% glucose media incubated at 37° C. with shaking at 200 rpm overnight. The culture media used was 900 mL H2O; 10.4 g RPMI 1640 (with L-glutamine and a pH indicator but without bicarbonate); 34.5 g MOPS and 18 g glucose. The pH of the media was adjusted to 7.0 with 1 M sodium hydroxide.
(§6) Solutions of the compound to be tested were prepared by dissolving the compound in DMSO and subsequently into media to the desired concentrations. 200 μL of compound solution was then added to the wells of the 96-well plate using a serial dilution method row-by row of the plate to give a compound concentration gradient across the plate of from 128 μg/mL to 0.25 μg/mL. The last two rows of each plate were control rows containing the culture media alone and the media plus fungi.
(§7) The fungi starter cultures were diluted 1:10 in water in cuvettes. This was then further diluted to an optical density (OD600) of 0.01 in media. 100 μL of the fungi was added to each well giving a starting concentration of fungus of 0.5-5×10^5/mL. One species of fungus was used on each plate. The plates were then held at 37° C. for 24 hours.
(§8) A plate reader was used to measure growth in each well at OD530 nm and the MIC was determined for each test compound. The MIC is defined as the lowest concentration giving rise to inhibition of ≥50% of that of the drug-free control well containing the fungus and media.
(§9) The compounds shown in Table 6 were tested against a further panel of Candida albicans.

C. albicans 3645 = experiment: Candida albicans panel MIC; format: cell-based; details: Table 6, Candida albicans panel
Method: as §4, §5, §6, §7, §8, §9

C. albicans 3880 = experiment: Candida albicans panel MIC; format: cell-based; details: Table 6, Candida albicans panel
Method: as §4, §5, §6, §7, §8, §9

C. albicans 3881 = experiment: Candida albicans panel MIC; format: cell-based; details: Table 6, Candida albicans panel
Method: as §4, §5, §6, §7, §8, §9

C. albicans 3882 = experiment: Candida albicans panel MIC; format: cell-based; details: Table 6, Candida albicans panel
Method: as §4, §5, §6, §7, §8, §9

C. albicans 3990 = experiment: Candida albicans panel MIC; format: cell-based; details: Table 6, Candida albicans panel
Method: as §4, §5, §6, §7, §8, §9

C. albicans 8112 = experiment: Candida albicans panel MIC; format: cell-based; details: Table 6, Candida albicans panel
Method: as §4, §5, §6, §7, §8, §9

panel of Candida species = experiment: Candida panel MIC, statements on the whole panel; format: cell-based; details: in words
Method: as §4, §5, §6, §7, §8

[1] = Table 6, Candida albicans panel
[2] = TDG2211, Table 4, extended panel, 24 hours, ≥50% inhibition, read-out: MIC Candida auris TDG2211
[3] = TDG2506, Table 4, extended panel, 24 hours, ≥50% inhibition, read-out: MIC Candida auris TDG2506
[4] = Candidozyma auris, 8971, Table 4, extended panel, 24 hours, ≥50% inhibition, read-out: MIC C. auris 8971
[5] = Candidozyma auris, 8977, Table 4, extended panel, 24 hours, ≥50% inhibition, read-out: MIC C. auris 8977
[6] = Candidozyma auris, 8984, Table 4, extended panel, 24 hours, ≥50% inhibition, read-out: MIC C. auris 8984
[7] = Candida albicans, Table 4, common panel, 24 hours, ≥50% inhibition
[8] = NCPF3876, Table 4, common panel, 24 hours, ≥50% inhibition, read-out: MIC C. krusei NCPF3876
[9] = NCPF3209, Table 4, common panel, 24 hours, ≥50% inhibition, read-out: MIC C. parapsilosis NCPF3209
[10] = NCPF8760, Table 4, common panel, 24 hours, ≥50% inhibition, read-out: MIC C. tropicalis NCPF8760

Compound	MIC (C. albicans NCPF3281; [1]) [µg/mL]	MIC (Candida auris TDG2211; [2]) [µg/mL]	MIC (Candida auris TDG2506; [3]) [µg/mL]	MIC (C. auris TDG1912) [µg/mL]	MIC (Candida auris TDG1102) [µg/mL]	MIC (Candida auris TDG2512) [µg/mL]	MIC (C. auris 8971; [4]) [µg/mL]	MIC (C. auris 8977; [5]) [µg/mL]	MIC (C. auris 8984; [6]) [µg/mL]	MIC (C. albicans 3363) [µg/mL]	MIC (C. albicans 3645) [µg/mL]	MIC (C. albicans 3880) [µg/mL]	MIC (C. albicans 3881) [µg/mL]	MIC (C. albicans 3882) [µg/mL]	MIC (C. albicans 3990) [µg/mL]	MIC (C. albicans 8112) [µg/mL]	MIC (C. albicans NCPF3281; [7]) [µg/mL]	MIC (C. krusei NCPF3876; [8]) [µg/mL]	MIC (C. parapsilosis NCPF3209; [9]) [µg/mL]	MIC (C. tropicalis NCPF8760; [10]) [µg/mL]	further results
C[C@@H](c1ncncc1F)[C@](O)(Cn1cncn1)c1ccc(F)cc1F [Voriconazole, voriconazole, reference compound]	≤ 0.007	> 128	2 (≈ 5.73 µM)	> 32	> 128	> 128	> 32	32 (≈ 91.6 µM)	> 128	1 (≈ 2.86 µM)	≤ 0.0078	0.25 (≈ 0.716 µM)	0.25 (≈ 0.716 µM)	0.25 (≈ 0.716 µM)	0.25 (≈ 0.716 µM)	≤ 0.00781	–	–	–	–	MIC (C. glabrata NCPF8018; NCPF8018, read-out: MIC C. Glabrata NCPF8018): 1 µg/mL (≈ 2.86 µM); MIC (C. krusei NCPF3876; NCPF3876, read-out: MIC C. Krusei NCPF3876): 0.5 to 2 µg/mL (≈ 1.43 to 5.73 µM); MIC (C. parapsilosis NCPF3209; NCPF3209, read-out: MIC C. Parapsilosis NCPF3209): ≤ 0.25 µg/mL; MIC (Candida auris TDG2211; TDG2211, read-out: MIC C. auris 2211): > 128 µg/mL; MIC (Candida auris TDG2506; TDG2506, read-out: MIC C. auris 2506): 2 µg/mL (≈ 5.73 µM); MIC (C. tropicalis NCPF8760; NCPF8760, read-out: MIC C. Tropicalis NCPF8760): 4 µg/mL (≈ 11.5 µM); MIC (C. auris 8971; Candidozyma auris, 8971, read-out: MIC C. auris 8971): > 32 µg/mL; MIC (C. auris 8977; Candidozyma auris, 8977, read-out: MIC C. auris 8977): 32 µg/mL (≈ 91.6 µM); MIC (C. auris 8984; Candidozyma auris, 8984, read-out: MIC C. auris 8984): > 128 µg/mL
COc1ccc(-c2ccc(NC3CCN(CC(O)(Cn4cncn4)c4ccc(F)cc4F)CC3)cc2)cc1 (centres unmarked) [Example 4, 2-(2,4-difluorophenyl)-1-(4-((4′-methoxy-[1,1′-biphenyl]-4-yl)amino)piperidin-1-yl)-3-(1H-1,2,4-triazol-1-yl)propan-2-ol]	–	0.006 (≈ 0.0115 µM)	≤ 0.003	0.06 (≈ 0.115 µM)	0.006 (≈ 0.0115 µM)	≤ 0.003	–	–	–	–	–	–	–	–	–	–	0.008 (≈ 0.0154 µM)	0.004 to 0.125 (≈ 0.0077 to 0.241 µM)	0.004 (≈ 0.0077 µM)	0.25 (≈ 0.481 µM)	Activity against Candida auris including resistant strains (panel of Candida species): highly active
OC(CN1CCC(Nc2ccc(Cc3ccccc3)cc2)CC1)(Cn1cncn1)c1ccc(F)cc1F (centres unmarked) [Example 11, 1-(4-((4-benzylphenyl)amino)piperidin-1-yl)-2-(2,4-difluorophenyl)-3-(1H-1,2,4-triazol-1-yl)propan-2-ol]	≤ 0.00098	≤ 0.125	≤ 0.125	0.125 (≈ 0.248 µM)	≤ 0.125	≤ 0.125	≤ 0.125	≤ 0.125	≤ 0.125	0.0156 (≈ 0.031 µM)	0.00391 (≈ 0.00776 µM)	0.0313 (≈ 0.0622 µM)	0.0313 (≈ 0.0622 µM)	0.0625 (≈ 0.124 µM)	0.0039 to 0.0625 (≈ 0.00774 to 0.124 µM)	0.00195 (≈ 0.00387 µM)	≤ 0.125	≤ 0.125	≤ 0.125	≤ 0.125	MIC (C. glabrata NCPF8018; NCPF8018, Table 4, common panel, 24 hours, ≥50% inhibition, read-out: MIC C. glabrata NCPF8018): ≤ 0.125 µg/mL
